Consider 20 compounds from patent US20260137706A1, “METHODS OF TREATING INFLAMMATORY DISEASES” (INTERLINE THERAPEUTICS, INC., priority 2023, published 2026).

The subject of assay [1] is NF-κB pathway (SEAP) in THP1-Dual cells. Description: THP-1 Dual cell SEAP assay (L18-MDP stimulated). Format: cell-based. To be noted: Homo sapiens, THP1-Dual, read-out: NF-κB THP1 IC50 bin. Summed up: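 IC50 values derive from non-linear regression of % inhibition, calculated against DMSO/L18-MDP-treated wells after media-only subtraction. NF-κB SEAP activity was read at OD 620-655 nm (QUANTI-Blue, 2 h, 37 °C) from supernatants of THP1-Dual cells. Cells had been compound-treated 30 min before overnight (20-24 h) stimulation with 10 ng/mL final L18-MDP.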

For assay [2], the target named is T1, binding of His-XIAP(BIR2)-avi fusion protein to GST-RIPK2 fusion protein (RIPK2/XIAP) (Homo sapiens, UniProt O43353).
T1 construct: made in house; host or cells: baculovirus infected Sf9 cells
T1 sequence (O43353 1-310 limits assumed): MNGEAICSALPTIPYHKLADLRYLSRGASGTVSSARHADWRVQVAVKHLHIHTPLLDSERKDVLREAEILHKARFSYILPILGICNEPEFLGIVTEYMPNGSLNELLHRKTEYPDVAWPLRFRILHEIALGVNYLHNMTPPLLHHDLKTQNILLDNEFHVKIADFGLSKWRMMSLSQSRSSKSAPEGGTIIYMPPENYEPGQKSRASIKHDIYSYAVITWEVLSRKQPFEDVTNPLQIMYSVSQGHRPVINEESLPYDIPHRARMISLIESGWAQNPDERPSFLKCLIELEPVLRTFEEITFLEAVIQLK
Description: RIPK2-XIAP binding competition PPI assay (TR-FRET). To be noted: RIPK2/XIAP binding competition PPI assay; for Emax: Amax, read-out: PPI Amax bin. In short, it runs like this:
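Compounds (in DMSO, 100-fold stock) incubated 120 min at 23 °C with 1 nM GST-RIPK2 (aa 1-310) and 25 nM His-XIAP(BIR2 aa 152-231)-avi, plus anti-His-XL665 and anti-GST-Tb, in pH 7.5 Tris buffer. Read-out: 665/520 nm emission ratio. Normalized to no-inhibitor (0%) and 50 nM GSK583 (−100%); Amax binned A–D.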
A general note: TR-FRET usually uses a lanthanide donor and a delayed reading to cut background.

In assay [3] the target is T2, GST-RIPK2 fusion protein (human RIPK2, amino acids 1-310) (Homo sapiens, UniProt O43353).
T2 construct: made in house; host or cells: baculovirus infected Sf9 cells
T2 sequence (O43353 1-310): as the sequence (O43353 1-310 limits assumed) above
Description: RIPK2 binding competition assay (TR-FRET, Tracer 199 displacement). In short, it runs like this:
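IC50 derived from the TR-FRET emission ratio (665/620 nm, 337 nm excitation), normalized with no-inhibitor and no-enzyme controls. Incubation 45 min at 22 °C, pH 7.5 Tris buffer, with final 10 nM tracer, 1 nM Sf9-expressed GST-RIPK2 fragment (aa 1-310) and 0.5 nM Tb-labelled anti-GST.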

Where [4] appears, read: 10 nM Tracer 199, 1 nM GST-RIPK2, read-out: RIPK2 IC50.

Like-named read-outs stand apart in the source and are kept apart here.

Broadly, the IC50 is the concentration that inhibits the measured activity by half. On to `CN1CCN(CCOc2cc3ncc(-c4cc(F)c(N)nc4F)n3cc2S(=O)(=O)C(C)(C)C)CC1` [Example 19, 5-(6-(tert-butylsulfonyl)-7-(2-(4-methylpiperazin-1-yl)ethoxy)imidazo[1,2-a]pyridin-3-yl)-3,6-difluoropyridin-2-amine], for which the IC50 in assay [1] is 250 to 1000 nM; in assay [2] (read-out: PPI IC50 bin), 2.5 to 20 nM; in assay [3] (setting [4]), 2.5 to 20 nM. Further, the Emax in assay [2] is over 80%.
As to `CC(C)(C)S(=O)(=O)c1cn2c(-c3ccc4[nH]ccc4n3)cnc2cc1OCCO` [Example 278, 2-((6-(tert-butylsulfonyl)-3-(1H-pyrrolo[3,2-b]pyridin-5-yl)imidazo[1,2-a]pyridin-7-yl)oxy)ethan-1-ol], the IC50 was over 1000 nM in assay [1], 2.5 to 20 nM in assay [2] (read-out: PPI IC50 bin) and over 20 nM in assay [3] (setting [4]). In addition, the Emax in assay [2] is 30 to 55%.
Regarding `COc1cc2ncc(-c3cccc(NS(=O)(=O)C4CCOCC4)c3)n2cc1S(=O)(=O)C(C)(C)C` [Example 147, N-(3-(6-(tert-butylsulfonyl)-7-methoxyimidazo[1,2-a]pyridin-3-yl)phenyl)tetrahydro-2H-pyran-4-sulfonamide], the values for the IC50 in assay [1], in assay [2] (read-out: PPI IC50 bin) and in assay [3] (setting [4]) were 250 to 1000 nM, 2.5 to 20 nM and 2.5 to 20 nM, respectively. Further, in assay [2], the Emax was over 80%.
Regarding `COc1cc2ncc(-c3cccc(NS(=O)(=O)C4CCNCC4)c3)n2cc1S(=O)(=O)C(C)(C)C` [Example 158, N-(3-(6-(tert-butylsulfonyl)-7-methoxyimidazo[1,2-a]pyridin-3-yl)phenyl)piperidine-4-sulfonamide], the IC50 in assay [1] is over 1000 nM; in assay [2] (read-out: PPI IC50 bin), over 20 nM; in assay [3] (setting [4]), over 20 nM. For the same compound, in assay [2], the Emax is over 80%.
On to `CC(C)(C)S(=O)(=O)c1cn2c(-c3cnc4[nH]cc(Cl)c4c3)cnc2cc1OCCO` [Example 219, 2-((6-(tert-butylsulfonyl)-3-(3-chloro-1H-pyrrolo[2,3-b]pyridin-5-yl)imidazo[1,2-a]pyridin-7-yl)oxy)ethan-1-ol], for which the values for the IC50 in assay [1], in assay [2] (read-out: PPI IC50 bin) and in assay [3] (setting [4]) were 50 to 250 nM, 1 to 2.5 nM and 1 to 2.5 nM, respectively. Further, in assay [2], the Emax was over 80%.
For `CCS(=O)(=O)Nc1cc(-c2cnc3cc(OC)c(S(=O)(=O)C(C)(C)CO)cn23)cc(Cl)c1OC` [Example 128, N-(3-chloro-5-(6-((1-hydroxy-2-methylpropan-2-yl)sulfonyl)-7-methoxyimidazo[1,2-a]pyridin-3-yl)-2-methoxyphenyl)ethanesulfonamide], the IC50 is 50 to 250 nM in assay [1], 1 to 2.5 nM in assay [2] (read-out: PPI IC50 bin) and 1 to 2.5 nM in assay [3] (setting [4]). Further, the Emax in assay [2] was 55 to 80%.
Turning to `COc1cc2ncc(-c3ccc(N)nc3F)n2cc1S(=O)(=O)C(C)(C)CO` [Example 58, 2-((3-(6-amino-2-fluoropyridin-3-yl)-7-methoxyimidazo[1,2-a]pyridin-6-yl)sulfonyl)-2-methylpropan-1-ol], the IC50 in assay [1] is over 1000 nM; in assay [2] (read-out: PPI IC50 bin), over 20 nM; in assay [3] (setting [4]), over 20 nM. The Emax in assay [2] was over 80%.
Take `CC(C)(C)S(=O)(=O)c1cn2c(-c3cc(F)c(N)nc3F)cnc2cc1OCC(F)(F)CN` [Example 202, 5-(7-(3-amino-2,2-difluoropropoxy)-6-(tert-butylsulfonyl)imidazo [1,2-a]pyridin-3-yl)-3,6-difluoropyridin-2-amine]: the IC50 in assay [1] was in the range of 50 to 250 nM; in assay [2] (read-out: PPI IC50 bin), 1 to 2.5 nM; in assay [3] (setting [4]) it was 1 to 2.5 nM. Besides, the Emax in assay [2] was over 80%.
Regarding `Cn1cc(COc2cc3ncc(-c4cc(F)c(N)nc4F)n3cc2S(=O)(=O)C(C)(C)C)cn1` [Example 30, 5-(6-(tert-butylsulfonyl)-7-((1-methyl-1H-pyrazol-4-yl)methoxy)imidazo[1,2-a]pyridin-3-yl)-3,6-difluoropyridin-2-amine], the half-maximal inhibitory concentration (IC50) lay in the range of 50 to 250 nM in assay [1], 2.5 to 20 nM in assay [2] (read-out: PPI IC50 bin) and 2.5 to 20 nM in assay [3] (setting [4]). Also, the Emax in assay [2] is over 80%.
As for `CC(C)(C)S(=O)(=O)c1cn2c(-c3cc(Br)c(N)nc3F)cnc2cc1OCCO` [Example 186, 2-((3-(6-amino-5-bromo-2-fluoropyridin-3-yl)-6-(tert-butylsulfonyl)imidazo[1,2-a]pyridin-7-yl)oxy)ethan-1-ol], the IC50 was in the range of 250 to 1000 nM in assay [1], 2.5 to 20 nM in assay [2] (read-out: PPI IC50 bin) and 2.5 to 20 nM in assay [3] (setting [4]). Besides, the Emax in assay [2] is over 80%.
`Cc1cc2cc(-c3cnc4cc(OCCO)c(S(=O)(=O)C(C)(C)C)cn34)cnc2[nH]1` [Example 232, 2-((6-(tert-butylsulfonyl)-3-(2-methyl-1H-pyrrolo[2,3-b]pyridin-5-yl)imidazo[1,2-a]pyridin-7-yl)oxy)ethan-1-ol]: the values for the IC50 in assay [1], in assay [2] (read-out: PPI IC50 bin) and in assay [3] (setting [4]) were over 1000 nM, under 1 nM and 2.5 to 20 nM, respectively. Also, the Emax in assay [2] lay in the range of 30 to 55%.
For `COc1c(F)cc(-c2cnc3cc(OC[C@@H](C)CO)c(S(=O)(=O)C(C)(C)C)cn23)cc1NS(C)(=O)=O` [Example 182, (S)-N-(5-(6-(tert-butylsulfonyl)-7-(3-hydroxy-2-methylpropoxy)imidazo[1,2-a]pyridin-3-yl)-3-fluoro-2-methoxyphenyl)methanesulfonamide] the same measures were under 50 nM, under 1 nM, under 1 nM and 55 to 80%.
`CC(C)(C)S(=O)(=O)c1cn2c(-c3ccc4ccnn4c3)cnc2cc1OCCO` [Example 209, 2-((6-(tert-butylsulfonyl)-3-(pyrazolo[1,5-a]pyridin-6-yl)imidazo[1,2-a]pyridin-7-yl)oxy)ethan-1-ol]: the half-maximal inhibitory concentration (IC50) in assay [1] is over 1000 nM; in assay [2] (read-out: PPI IC50 bin), over 20 nM; in assay [3] (setting [4]), over 20 nM. In addition, in assay [2], the Emax was 30 to 55%.
`C[C@H](CO)COc1cn2ncc(-c3cc(F)c(N)nc3F)c2cc1S(=O)(=O)C(C)(C)C` [Example 195, (R)-3-((3-(6-amino-2,5-difluoropyridin-3-yl)-5-(tert-butylsulfonyl)pyrazolo [1,5-a]pyridin-6-yl)oxy)-2-methylpropan-1-ol]: the IC50 was under 50 nM in assay [1], under 1 nM in assay [2] (read-out: PPI IC50 bin) and under 1 nM in assay [3] (setting [4]). Moreover, in assay [2], the Emax is over 80%.
Consider `COc1cc2ncc(-c3cccc(NS(=O)(=O)C4CNC4)c3)n2cc1S(=O)(=O)C(C)(C)C` [Example 156, N-(3-(6-(tert-butylsulfonyl)-7-methoxyimidazo[1,2-a]pyridin-3-yl)phenyl)azetidine-3-sulfonamide], for which the IC50 is over 1000 nM in assay [1], over 20 nM in assay [2] (read-out: PPI IC50 bin) and over 20 nM in assay [3] (setting [4]). Moreover, the Emax in assay [2] is over 80%.
With `CCS(=O)(=O)Nc1cc(-c2cnc3cc(OC)c(C(=O)N4CCOCC4)cn23)cc(F)c1OC` [Example 190, N-(3-fluoro-2-methoxy-5-(7-methoxy-6-(morpholine-4-carbonyl)imidazo[1,2-a]pyridin-3-yl)phenyl) ethanesulfonamide], the IC50 in assay [1] was over 1000 nM; in assay [2] (read-out: PPI IC50 bin), over 20 nM; in assay [3] (setting [4]), over 20 nM. Also, in assay [2], the Emax is 55 to 80%.
Take `CC(C)(C)S(=O)(=O)c1cn2c(-c3cc(F)c(N)nc3F)cnc2cc1OCCN1CCOCC1` [Example 18, 5-(6-(tert-butylsulfonyl)-7-(2-morpholinoethoxy)imidazo[1,2-a]pyridin-3-yl)-3,6-difluoropyridin-2-amine]: the half-inhibitory concentration (IC50) in assay [1] was 250 to 1000 nM; in assay [2] (read-out: PPI IC50 bin), 2.5 to 20 nM; in assay [3] (setting [4]), 2.5 to 20 nM. In addition, the Emax in assay [2] is over 80%.
`C[C@H](CO)Oc1cc2ncc(-c3cc(F)c(N)nc3F)n2cc1S(=O)(=O)C(C)(C)C` [Example 172, (R)-2-((3-(6-amino-2,5-difluoropyridin-3-yl)-6-(tert-butylsulfonyl)imidazo[1,2-a]pyridin-7-yl)oxy)propan-1-ol]: the IC50 in assay [1] is 250 to 1000 nM; in assay [2] (PPI IC50 bin), 2.5 to 20 nM; in assay [3] (RIPK2 IC50 (nM), 10 nM Tracer 199, 1 nM GST-RIPK2), 2.5 to 20 nM. In addition, in assay [2], the Emax is over 80%.
In the case of `COc1cc2ncc(-c3cc(F)c(OC)c4c3cnn4CCO)n2cc1S(=O)(=O)C(C)(C)C` [Example 121, 2-(4-(6-(tert-butylsulfonyl)-7-methoxyimidazo[1,2-a]pyridin-3-yl)-6-fluoro-7-methoxy-1H-indazol-1-yl)ethan-1-ol], the half-inhibitory concentration (IC50) is over 1000 nM in assay [1], over 20 nM in assay [2] (read-out: PPI IC50 bin) and over 20 nM in assay [3] (setting [4]). In addition, the Emax in assay [2] fell in the range of 55 to 80%.
Turning to `CC(C)(C)S(=O)(=O)c1cn2c(-c3cc(F)c(N)nc3F)cnc2cc1OCC(F)(F)CO` [Example 54, 3-((3-(6-amino-2,5-difluoropyridin-3-yl)-6-(tert-butylsulfonyl)imidazo[1,2-a]pyridin-7-yl)oxy)-2,2-difluoropropan-1-ol], the values for the IC50 in assay [1], in assay [2] (read-out: PPI IC50 bin) and in assay [3] (setting [4]) were 50 to 250 nM, 2.5 to 20 nM and 1 to 2.5 nM, respectively. Further, in assay [2], the Emax is over 80%.
